Source: PMC5104426, “Screening a Phage Display Library for Two Novel OmpU-Binding Peptides with Adhesion Antagonistic Activity against Vibrio mimicus” (PLoS ONE, 2016)

Key:
[1] = system: V. mimicus 04–14 isolate adhesion to EPC cells; experiment: Peptide adhesion inhibition test: V. mimicus adhesion to EPC cells; type: cell-based, Vibrio mimicus; settings: 500 μg/mL peptide mixed with equal volume of V. mimicus 04–14 (2 × 10^7 CFU/mL), 1 h 28°C, then 1 h on EPC cells, crystal violet, 30 cells counted, mean ± SD, triplicate
Experimental: When EPC cells grown in 24-well plate containing coverslips formed a confluent monolayer, the medium was changed to RPMI-1640 medium without serum and antibiotics for 2 h. Subsequently, 500 μg/mL of each OmpU-binding peptide or unrelated control peptide solution were respectively mixed with an equal volume of V. mimicus isolate 04–14 suspension (2 × 10^7 CFU/mL) and incubated for 1 h at 28°C. The mixture was added to each well, and then the plates were incubated for 1 h at 28°C. After 3 times washes, EPC cells were fixed with cooled methanol for 10 min, stained with crystal violet and examined under a light microscope at a magnification of ×1,000. Thirty cells were randomly selected to count the number of adhering bacterial per slide. Each experiment was performed in triplicate, with each sample being repeated in 3 cell wells.

[2] = system: rOmpU fusion protein adhesion to EPC cells; experiment: Fluorescence-based adhesion assay: rOmpU protein adhesion to EPC cells; type: cell-based, Vibrio mimicus; settings: 500 μg/mL peptide mixed with equal volume of 500 μg/mL rOmpU, 1 h 28°C, then 1 h on fixed EPC cells; anti-OmpU/FITC immunofluorescence; triplicate
Experimental: Synthetic OmpU-binding peptides were measure for their ability to antagonize OmpU protein adhesion to EPC cells by fluorescence-based adhesion assay. Briefly, EPC cells (1 × 10^6 cells/mL) were seeded in 24-well cell plate containing coverslip (Corning, NY, USA) and cultured to 80% confluence. The cells were gently washed 3 times with PBS and fixed with 4% paraformaldehyde at room temperature for 15 min. After 3 washes with PBS, cells were permeabilized with 0.5% Triton X-100 (500 μL/well) for 15 min. The cells were then washed 3 times with PBS and blocked with 2% BSA for 30 min. Subsequently, 500 μg/mL of each OmpU-binding peptide or irrelevant control peptide (used as negative control) solution were respectively mixed with an equal volume of 500 μg/mL rOmpU fusion protein, and the mixture was incubated for 1 h at 28°C and added to each well. The plates were incubated for 1 h at 28°C. After 3 washes, purified rabbit anti-OmpU antibody (prepared in our previous studies) at a dilution of 1:200 in PBS was added to each well and incubated for 1 h at 28°C, followed by 3 washes in PBS. A 1:100 dilution of FITC (fluorescein isothiocyanate)-labeled goat anti-rabbit IgG (Jackson ImmunoResearch Laboratories, Inc., USA) was added to each well and incubated in the dark for 1 h. After 3 washes in PBS, 4,6-Diamidino-2-phenylindole dihydrochloride (DAPI; Ziyi Reagent Co., Shanghai, China) was used to stain the nucleus, and the coverslips were observed under a fluorescence microscope. Each experiment was performed in triplicate, each sample being tested in three wells.

TGYICDEMFCKL [P3]
average number of adhesion around each cell [1]: 20.2 ± 0.5 | green fluorescence on the surface of EPC cells (surface-retained rOmpU) [2]: Obvious green fluorescence
